Data as given in ChEMBL document CHEMBL1138430, “Novel tetrahydroisoquinolines are histamine H3 antagonists and serotonin reuptake inhibitors” (Bioorg Med Chem Lett, 2007).
The source made the active and inactive calls.

Legend:
[1] = target: T1, Substance-K receptor (Homo sapiens) (UniProt P21452); test: Binding affinity at NK2 receptor at 1 uM
T1 sequence (whole entry): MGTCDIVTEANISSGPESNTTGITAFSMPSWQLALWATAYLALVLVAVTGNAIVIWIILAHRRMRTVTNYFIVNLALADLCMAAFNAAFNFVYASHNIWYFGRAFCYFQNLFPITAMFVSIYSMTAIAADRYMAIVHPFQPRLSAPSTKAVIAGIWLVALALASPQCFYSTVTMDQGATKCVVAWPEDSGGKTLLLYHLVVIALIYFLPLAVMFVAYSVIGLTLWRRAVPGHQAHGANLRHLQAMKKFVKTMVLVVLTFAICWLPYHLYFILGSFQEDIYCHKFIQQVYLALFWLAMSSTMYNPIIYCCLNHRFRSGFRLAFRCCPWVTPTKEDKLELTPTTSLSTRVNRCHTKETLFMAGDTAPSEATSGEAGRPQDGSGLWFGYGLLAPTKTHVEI

[2] = target: 5-hydroxytryptamine receptor 1B (Homo sapiens) (UniProt P28222); test: Binding affinity at 5HT1B receptor at 1 uM
5-hydroxytryptamine receptor 1B (Homo sapiens), sequence (P28222 whole entry): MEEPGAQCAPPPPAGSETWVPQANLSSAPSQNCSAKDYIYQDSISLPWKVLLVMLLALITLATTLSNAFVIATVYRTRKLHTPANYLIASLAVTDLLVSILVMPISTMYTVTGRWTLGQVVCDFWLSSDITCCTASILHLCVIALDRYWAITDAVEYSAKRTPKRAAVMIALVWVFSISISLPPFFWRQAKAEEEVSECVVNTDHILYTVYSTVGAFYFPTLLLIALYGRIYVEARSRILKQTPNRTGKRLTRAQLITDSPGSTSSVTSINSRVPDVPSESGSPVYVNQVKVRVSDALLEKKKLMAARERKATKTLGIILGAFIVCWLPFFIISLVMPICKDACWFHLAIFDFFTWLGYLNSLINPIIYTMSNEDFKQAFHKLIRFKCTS

Homo sapiens [3] = organism: Homo sapiens; test: Binding affinity at adrenergic alpha-2 receptor at 1 uM
[4] = target: 5-hydroxytryptamine receptor 2A (Homo sapiens) (UniProt P28223); test: Binding affinity at 5HT2A receptor at 1 uM
5-hydroxytryptamine receptor 2A (Homo sapiens), sequence (P28223 whole entry): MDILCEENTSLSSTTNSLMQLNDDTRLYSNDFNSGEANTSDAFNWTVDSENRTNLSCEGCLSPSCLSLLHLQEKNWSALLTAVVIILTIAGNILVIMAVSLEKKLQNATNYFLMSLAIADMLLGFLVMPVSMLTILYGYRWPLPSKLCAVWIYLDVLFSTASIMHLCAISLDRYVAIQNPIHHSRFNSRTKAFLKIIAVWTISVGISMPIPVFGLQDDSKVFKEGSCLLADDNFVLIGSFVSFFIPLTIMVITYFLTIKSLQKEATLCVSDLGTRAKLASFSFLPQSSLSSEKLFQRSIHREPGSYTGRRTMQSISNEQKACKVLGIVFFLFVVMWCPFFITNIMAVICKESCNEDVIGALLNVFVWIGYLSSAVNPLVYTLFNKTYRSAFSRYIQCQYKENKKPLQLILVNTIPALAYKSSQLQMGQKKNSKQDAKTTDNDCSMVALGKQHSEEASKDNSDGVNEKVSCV

[5] = target: T2, B2 bradykinin receptor (Homo sapiens) (UniProt P30411); test: Binding affinity at bradykinin B2 receptor at 1 uM
T2 sequence (whole entry): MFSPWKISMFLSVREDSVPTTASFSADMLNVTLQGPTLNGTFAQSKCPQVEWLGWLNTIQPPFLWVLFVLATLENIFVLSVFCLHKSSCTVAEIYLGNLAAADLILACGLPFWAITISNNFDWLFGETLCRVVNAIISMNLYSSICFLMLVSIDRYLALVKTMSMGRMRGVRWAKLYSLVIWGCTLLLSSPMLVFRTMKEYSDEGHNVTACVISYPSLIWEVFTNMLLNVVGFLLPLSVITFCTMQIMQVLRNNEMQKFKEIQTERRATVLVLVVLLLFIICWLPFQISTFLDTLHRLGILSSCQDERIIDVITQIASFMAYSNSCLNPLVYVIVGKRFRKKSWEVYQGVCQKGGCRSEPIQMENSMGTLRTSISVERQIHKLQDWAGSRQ

Homo sapiens [6] = organism: Homo sapiens; test: Binding affinity for sodium channel at 1 uM
[7] = target: T3, Adenosine receptor A3 (Homo sapiens) (UniProt P0DMS8); test: Binding affinity at adenosine A3 receptor at 1 uM
T3 sequence (whole entry): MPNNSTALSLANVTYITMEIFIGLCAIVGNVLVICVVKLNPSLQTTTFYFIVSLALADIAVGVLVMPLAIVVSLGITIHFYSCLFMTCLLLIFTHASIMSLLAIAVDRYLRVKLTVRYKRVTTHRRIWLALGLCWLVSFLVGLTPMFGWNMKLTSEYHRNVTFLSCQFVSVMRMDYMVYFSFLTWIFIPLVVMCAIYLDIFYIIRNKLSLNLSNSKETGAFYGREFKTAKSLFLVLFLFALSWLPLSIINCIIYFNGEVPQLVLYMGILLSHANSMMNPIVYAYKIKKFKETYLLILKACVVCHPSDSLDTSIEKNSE

[8] = target: Kappa-type opioid receptor (Homo sapiens) (UniProt P41145); test: Binding affinity at KOP receptor at 1 uM
Kappa-type opioid receptor (Homo sapiens), sequence (P41145 whole entry): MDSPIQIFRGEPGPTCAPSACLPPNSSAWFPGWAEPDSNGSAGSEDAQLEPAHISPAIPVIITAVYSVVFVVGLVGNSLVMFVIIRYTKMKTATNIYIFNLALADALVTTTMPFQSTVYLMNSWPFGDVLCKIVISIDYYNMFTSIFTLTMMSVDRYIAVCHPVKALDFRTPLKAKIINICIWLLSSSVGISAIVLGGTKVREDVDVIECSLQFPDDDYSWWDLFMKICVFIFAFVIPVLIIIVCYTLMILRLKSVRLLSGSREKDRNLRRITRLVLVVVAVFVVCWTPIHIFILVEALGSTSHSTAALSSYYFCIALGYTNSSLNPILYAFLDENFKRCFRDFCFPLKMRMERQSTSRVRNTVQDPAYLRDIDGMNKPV

[9] = target: T4, 5-hydroxytryptamine receptor 3A (Homo sapiens) (UniProt P46098); test: Binding affinity at 5HT3 receptor at 1 uM
T4 sequence (whole entry): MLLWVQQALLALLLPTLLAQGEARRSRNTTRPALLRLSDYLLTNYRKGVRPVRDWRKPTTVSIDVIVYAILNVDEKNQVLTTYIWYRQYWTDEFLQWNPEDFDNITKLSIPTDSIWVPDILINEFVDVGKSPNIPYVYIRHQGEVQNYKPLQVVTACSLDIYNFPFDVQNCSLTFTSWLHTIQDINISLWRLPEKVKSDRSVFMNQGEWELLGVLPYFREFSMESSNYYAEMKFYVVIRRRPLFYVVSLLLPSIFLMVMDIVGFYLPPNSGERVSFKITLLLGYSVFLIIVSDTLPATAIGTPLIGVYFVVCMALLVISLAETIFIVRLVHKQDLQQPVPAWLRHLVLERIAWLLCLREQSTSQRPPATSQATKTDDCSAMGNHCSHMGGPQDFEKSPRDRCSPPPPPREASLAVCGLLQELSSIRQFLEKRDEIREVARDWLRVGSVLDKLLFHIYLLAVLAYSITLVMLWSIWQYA

[10] = target: T5, Muscarinic acetylcholine receptor M1 (Homo sapiens) (UniProt P11229); test: Binding affinity at muscarinic M1 receptor at 1 uM
T5 sequence (whole entry): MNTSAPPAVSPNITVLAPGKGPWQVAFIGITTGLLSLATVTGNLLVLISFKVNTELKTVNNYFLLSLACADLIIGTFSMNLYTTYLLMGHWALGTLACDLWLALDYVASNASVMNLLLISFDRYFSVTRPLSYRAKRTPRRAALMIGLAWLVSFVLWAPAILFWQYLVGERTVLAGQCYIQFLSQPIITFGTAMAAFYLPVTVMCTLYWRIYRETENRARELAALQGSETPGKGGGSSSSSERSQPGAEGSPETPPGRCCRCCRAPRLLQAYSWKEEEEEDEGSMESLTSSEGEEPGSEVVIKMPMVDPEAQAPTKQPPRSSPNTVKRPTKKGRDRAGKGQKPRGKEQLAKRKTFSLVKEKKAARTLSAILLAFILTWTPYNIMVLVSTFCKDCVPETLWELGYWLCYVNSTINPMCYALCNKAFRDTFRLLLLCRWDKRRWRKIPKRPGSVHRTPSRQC

[11] = target: Mu-type opioid receptor (Homo sapiens) (UniProt P35372); test: Binding affinity at MOP receptor at 1 uM
Mu-type opioid receptor (Homo sapiens), sequence (P35372 whole entry): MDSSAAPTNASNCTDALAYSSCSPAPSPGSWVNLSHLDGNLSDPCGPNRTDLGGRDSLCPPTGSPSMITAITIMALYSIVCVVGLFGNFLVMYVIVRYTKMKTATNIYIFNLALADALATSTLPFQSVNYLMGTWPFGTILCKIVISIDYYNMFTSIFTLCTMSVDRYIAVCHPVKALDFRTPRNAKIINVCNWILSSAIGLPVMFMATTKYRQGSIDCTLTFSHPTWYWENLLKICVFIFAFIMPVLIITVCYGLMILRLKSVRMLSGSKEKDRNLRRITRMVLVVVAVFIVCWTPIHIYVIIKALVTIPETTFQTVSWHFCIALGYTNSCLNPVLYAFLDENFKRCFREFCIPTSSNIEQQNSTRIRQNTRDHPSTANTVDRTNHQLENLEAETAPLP

[12] = target: Muscarinic acetylcholine receptor M3 (Homo sapiens) (UniProt P20309); test: Binding affinity at muscarinic M3 receptor at 1 uM
Muscarinic acetylcholine receptor M3 (Homo sapiens), sequence (P20309 whole entry, looked up): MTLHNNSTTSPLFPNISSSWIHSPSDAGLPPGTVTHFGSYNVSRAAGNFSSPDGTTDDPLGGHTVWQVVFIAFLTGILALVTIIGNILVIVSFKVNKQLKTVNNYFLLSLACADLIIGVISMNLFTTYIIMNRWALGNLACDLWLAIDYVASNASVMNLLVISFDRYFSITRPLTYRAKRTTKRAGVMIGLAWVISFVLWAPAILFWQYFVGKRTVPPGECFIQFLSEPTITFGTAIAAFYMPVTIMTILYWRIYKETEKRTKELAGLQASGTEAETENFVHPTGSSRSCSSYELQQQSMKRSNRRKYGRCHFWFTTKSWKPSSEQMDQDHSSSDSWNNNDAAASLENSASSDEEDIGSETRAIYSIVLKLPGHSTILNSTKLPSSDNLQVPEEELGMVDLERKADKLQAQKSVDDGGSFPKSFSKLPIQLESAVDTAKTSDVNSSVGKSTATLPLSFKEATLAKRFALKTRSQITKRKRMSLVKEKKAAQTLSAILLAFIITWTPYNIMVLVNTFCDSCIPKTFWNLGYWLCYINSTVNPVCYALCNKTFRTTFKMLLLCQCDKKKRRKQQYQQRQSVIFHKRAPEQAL

[13] = target: T6, Type-1 angiotensin II receptor (Homo sapiens) (UniProt P30556); test: Binding affinity at AT1 receptor at 1 uM
T6 sequence (whole entry): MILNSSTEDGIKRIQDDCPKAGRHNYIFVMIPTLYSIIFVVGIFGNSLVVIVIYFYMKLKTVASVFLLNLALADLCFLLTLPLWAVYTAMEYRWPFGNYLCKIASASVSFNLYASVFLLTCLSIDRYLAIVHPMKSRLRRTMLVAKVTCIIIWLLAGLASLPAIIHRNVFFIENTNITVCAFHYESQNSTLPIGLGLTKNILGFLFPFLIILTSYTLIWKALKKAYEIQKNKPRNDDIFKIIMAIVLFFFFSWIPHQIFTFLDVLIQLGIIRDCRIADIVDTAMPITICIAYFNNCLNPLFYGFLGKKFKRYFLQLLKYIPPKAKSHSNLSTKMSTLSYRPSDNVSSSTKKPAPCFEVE

[14] = target: 5-hydroxytryptamine receptor 5A (Homo sapiens) (UniProt P47898); test: Binding affinity at 5HT5A receptor at 1 uM
5-hydroxytryptamine receptor 5A (Homo sapiens), sequence (P47898 whole entry): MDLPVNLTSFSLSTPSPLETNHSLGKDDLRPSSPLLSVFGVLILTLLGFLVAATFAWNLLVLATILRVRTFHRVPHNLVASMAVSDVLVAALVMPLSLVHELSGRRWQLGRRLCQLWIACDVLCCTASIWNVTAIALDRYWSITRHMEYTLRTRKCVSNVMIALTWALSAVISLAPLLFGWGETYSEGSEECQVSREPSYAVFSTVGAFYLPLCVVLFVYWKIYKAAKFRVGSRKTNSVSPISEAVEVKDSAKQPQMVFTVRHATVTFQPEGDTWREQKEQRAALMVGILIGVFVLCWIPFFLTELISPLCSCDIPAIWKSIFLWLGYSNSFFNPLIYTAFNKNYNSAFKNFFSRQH

Measured: Activity

COc1ccc([C@@H]2CN(C)Cc3cc(OCCCN4CCOC[C@@H]4C)ccc32)cc1
inactive: all assays above

CSc1ccc(C2CN(C)Cc3cc(OCCCN4CCOCC4)ccc32)cc1 (racemic)
inactive: all assays above

CSc1ccc(C2CN(C)Cc3cc(OCCCN4CCC(F)CC4)ccc32)cc1 (racemic)
inactive: all assays above
